The test system of experiment [1] is C57 mice, hot plate pain model. The experiment in a line: mice hot plate pain model. Type of experiment: in vivo, mouse. The settings on record: 10 mg/kg intraperitoneal, hot plate 55±0.1° C., within 60 minutes. Here is the method: SPF-grade C57 male mice were placed at hot plate with constant 55±0.1° C. […] If the pain reaction of mice was observed, the mice were taken out immediately to prevent mice from scalding. […] The test compounds were freshly prepared on the day of administration. 0.9% NaCl physiological saline solution was prepared as solvent for later use. Appropriate amount of test compounds were added into required volume of physiological saline and fully suspended, and the concentration of the drug compound in preparation was 1 mg/ml. The standard volume of administration to mice was 10 ml/kg (or 0.1 ml/10 g). […] The administration volume was 10 ml/kg. […] Hot plate observation index: the reaction time of mice on the hot plate at 55±0.1° C. (Time latency). Measurement and recording were conducted at 3 h before administration and 15 min, 30 min, and 60 min after administration. Maximum possible effect (MPE) % was used to evaluate analgesic effect of each compound, i.e., MPE %=[(Post drug latency-baseline latency)/(30-baseline latency)]×100. MPE % at different time points was recorded. The higher the value of MPE % was, the stronger the analgesic effect of the compound was.

Another experiment concerns the target T1, TRPA1 (Mus musculus, UniProt Q8BLA8).
T1 construct: expressed in transfected cells; host or cells: HEK293
The experiment in a line: IonWorks Barracuda (IWB) automated patch clamp detection of TRPA1 inhibitory activity. Type of experiment: cell-based, mouse (mTRPA1). The note with it: automated patch clamp (IWB). Here is the method: The inhibitory activity of some compounds in the Examples of present invention on transient receptor potential channel protein TRPA1 was tested in this example. The compound of formula A (WO2010075353) was used as a positive control compound: […]
IonWorks Barracuda (IWB) automated patch clamp detection was used as test method: HEK293 cells stably expressing TRPA1 were placed in DMEM medium containing 15 μg/mL Blasticidin S HCl, 200 μg/mL Hygromycin B and 10% FBS in the T175 culture flask, and cultured in 37° C., 5% CO2 incubator. When the cell density reached about 80%, the culture medium was removed, rinsed with phosphate buffered saline (PBS) without calcium and magnesium. 3 mL of Trypsin was added to digest for 2 min, 7 mL of culture medium was added to terminate the digestion. The cells were collected to 15 mL centrifuge tube and centrifuged at 800 rpm for 3 min. After the supernatant was removed, the cells were added to appropriate volume of extracellular fluid for re-suspending, and the cell density was controlled at 2-3×10^6/mL for IWB experiment. Extracellular fluid formulation (in mM): 140 NaCl, 5 KCl, 1 MgCl2, 10 HEPES, 0.5 EGTA, 10 Glucose (pH 7.4); intracellular fluid formulation (in mM): 140 CsCl, 10 HEPES, 5 EGTA, 0.1 CaCl2, 1 MgCl2 (pH 7.2). 28 mg/mL of amphotericin B was freshly prepared with DMSO on the day of experiment, and then final concentration of 0.1 mg/mL was prepared with intracellular fluid.
Population patch clamp (PPC) plate was used in IWB experiment. The entire detection process was automatically carried out by the instrument. Extracellular fluid was added into 384 wells of PPC plate, and 6 µL of the intracellular fluid was added into plenum (under the PPC plate), 6 µL of cell fluid was added for sealing test, and finally the intracellular fluid in plenum was replaced with amphotericin B-containing intracellular fluid to establish a whole-cell recording mode after perforating sealed cells. The sampling frequency for recording TPRA1 current was 10 kHz, the cells were clamped at 0 mV, the voltage stimulation command (channel protocol) was a ramp voltage from −100 mV to +100 mV for 300 ms. This voltage stimulation was applied every 10 s, mTRPA1 current was induced by 300 µM AITC.
Data recording and current amplitude measurement export were carried out by IWB software (version 2.5.3, Molecular Devices Corporation, Union City, Calif.). No statistics was recorded for holes with sealing impedance lower than 20 MΩ. The original current data was corrected by software for leakage reduction. TRPA1 current amplitude was measured at +100 mV. […] If IC50 value of HC030031 exceeded 3 times the average IC50 value previously obtained on each plate, it would be re-tested. The dose-effect curve of compounds and IC50 were fitted and calculated by GraphPad Prism 5.02 (GraphPad Software, San Diego, Calif.).
(In general: Patch clamp records ionic current or voltage across a cell membrane.)

In a further experiment the test system is HepG2 cell. The experiment in a line: Cytotoxicity test (CCK-8), hepatotoxicity. The settings on record: Homo sapiens, 72 h. Type of experiment: cell-based. The method, then: (§1) HepG-2 and SH—SY5Y cells were placed in 10 cm dish and cultured at 37° C., 5% CO2 in a cell incubator. Trypsin was used to digest and resuspend cells and cells were counted. The cells were transferred to 96-well plate with 8000 cells in a well (100 μl/well). A serial of gradient concentration dilutions of compound with 2-fold dilution were prepared, and the system was 100 μL/well. The supernatant of cell culture system in the 96-well plate was removed on the first day, and fresh-prepared drug concentration system was add into culture plate wells (duplicate wells were set). The cells were cultured at 37° C., 5% CO2 in a cell incubator for 72 h. After the cell culture was completed, the supernatant of cell culture system was removed from 96-well plate, 100 μl of detection solution containing 10% CCK-8 medium was added into each well, and the cells were cultured at 37° C., 5% CO2 in a cell incubator for 1 h. Microplate reader was used to measure the absorbance at 450 nm. Data was processed to calculate cytotoxicity, and IC50 was calculated by GraphPad Prism. […]
(§2) A (Dosing): the absorbance of wells containing cells, CCK-8 solution and drug solution.
(§3) A (control): the absorbance of wells containing medium and CCK-8 solution and without cells.
(§4) A (0 Dosing): the absorbance of wells containing cells and CCK-8 solution but without drug solution.

The test system of a further experiment is SH—SY5Y cells. The experiment can be described thus: Cytotoxicity test (CCK-8), neurotoxicity. Type of experiment: cell-based. The settings on record: Homo sapiens, 72 h. The method, then: as §1, §2, §3, §4

Like-named read-outs stand apart in the source and are kept apart here.

T1 sequence (Q8BLA8 whole entry): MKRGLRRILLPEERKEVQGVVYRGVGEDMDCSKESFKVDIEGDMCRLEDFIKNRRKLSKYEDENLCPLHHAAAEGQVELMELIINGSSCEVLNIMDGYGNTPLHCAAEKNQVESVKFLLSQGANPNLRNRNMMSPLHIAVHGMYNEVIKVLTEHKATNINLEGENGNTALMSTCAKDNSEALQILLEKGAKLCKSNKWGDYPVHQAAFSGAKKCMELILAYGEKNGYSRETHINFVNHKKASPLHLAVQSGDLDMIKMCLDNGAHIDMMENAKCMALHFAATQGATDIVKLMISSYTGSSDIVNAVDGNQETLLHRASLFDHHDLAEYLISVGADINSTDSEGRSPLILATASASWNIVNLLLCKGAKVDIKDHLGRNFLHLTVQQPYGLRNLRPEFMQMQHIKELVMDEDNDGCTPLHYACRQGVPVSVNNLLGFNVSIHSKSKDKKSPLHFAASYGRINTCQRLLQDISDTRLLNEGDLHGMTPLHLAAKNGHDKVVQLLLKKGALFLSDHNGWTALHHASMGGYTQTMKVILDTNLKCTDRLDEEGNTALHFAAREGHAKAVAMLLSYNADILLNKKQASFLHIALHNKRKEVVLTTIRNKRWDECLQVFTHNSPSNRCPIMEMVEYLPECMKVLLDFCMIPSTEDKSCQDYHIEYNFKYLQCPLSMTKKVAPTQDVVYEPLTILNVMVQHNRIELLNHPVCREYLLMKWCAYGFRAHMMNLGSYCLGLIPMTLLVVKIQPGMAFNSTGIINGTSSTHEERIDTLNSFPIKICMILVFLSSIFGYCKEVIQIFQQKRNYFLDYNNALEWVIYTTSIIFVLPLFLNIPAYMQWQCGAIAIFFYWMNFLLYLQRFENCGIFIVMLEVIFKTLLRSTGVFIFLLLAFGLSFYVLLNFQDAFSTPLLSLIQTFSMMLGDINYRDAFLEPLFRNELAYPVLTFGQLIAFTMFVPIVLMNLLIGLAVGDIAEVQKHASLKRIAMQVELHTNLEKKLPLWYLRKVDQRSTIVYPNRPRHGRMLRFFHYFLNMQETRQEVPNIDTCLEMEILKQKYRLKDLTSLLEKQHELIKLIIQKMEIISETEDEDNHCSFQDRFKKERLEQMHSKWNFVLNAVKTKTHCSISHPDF

Usually IC50 stands for the concentration needed to halve the response being measured. As for `CNCC[C@H](Oc1cccc2ccoc12)c1cccs1` [Compound IC-1, (S)-3-(benzofuran-7-yloxy)-N-methyl-3-(thiophen-2-yl)propyl-1-amine], in experiment [1], the “analgesic effect (MPE %) on hot plate” value is “stronger than those of gabapentin and duloxetine”. The IC50 on TRPA1 (HEK293 cells stably expressing TRPA1, AITC-induced current at +100 mV, read-out: IC50 (μM) on TRPA1 in the patch clamp detection test) lay within 1 to 5 µM.
On to `CNCC[C@H](Oc1cccc2ccccc12)c1cccs1` [Duloxetine (S configuration), Duloxetine], for which the IC50 in the experiment on HepG2 cell came to 33 µM; at TRPA1 (read-out: IC50 on TRPA1), 24.7 µM; with SH—SY5Y cells, 28 µM.

The record behind these values is patent US20220119375A1, “3-ARYLOXY-3-ARYL-PROPYLAMINE COMPOUND AND USES THEREOF” (Zhangzhou Pien Tze Huang Pharmaceutical Co., Ltd., priority 2018, published 2022).
